In patent US12465603B2, “Phthalazinone based modulators for the treatment of disease” (Soley Therapeutics, Inc., priority 2022, dated 2025):

Legend:
[1] = test system: A2058 (ATCC, CRL-11147) cells; experiment: Cell viability assay (Cell Titre Glo, 72 hours) in A2058 cells; format: cell-based; conditions: Homo sapiens
Protocol: (§1) Example 31: Cell Viability Assays
(§2) Phthalazinone based modulators as described herein were dispensed into 384 well CulturPlates™ (PerkinElmer) using Echo 555 acoustic dispensing in 10-point dose response curves at a final top concentration of 30 μM following a 1 in 3 dilution series. A2058 (ATCC, CRL-11147) or PA1 (ECACC, 90013101) cells were added directly to a compound at a density of 5000 cells per well in a final volume of 50 μL and incubated for 72 hours at 37° C., 5% CO2. Viability was assessed using Cell Titre Glo® (Promega) according to the manufacturer's instructions (25 μL per well) and IC50 curves were generated for each inhibitor using IDBS ActivityBase data analysis software.

[2] = test system: PA1 (ECACC, 90013101) cells; experiment: Cell viability assay (Cell Titre Glo, 72 hours) in PA1 cells; format: cell-based; conditions: Homo sapiens, PA-1
Protocol: as §1, §2

`Cn1cc(C(=O)N2CCN(c3ccccc3)CC2)c2ccccc2c1=O` [Compound 1, 2-methyl-4-(4-phenylpiperazine-1-carbonyl)isoquinolin-1-one] gave an IC50 [1] of 1 to 10 µM and an IC50 [2] of 1 to 10 µM.
`Cn1nc(C(=O)N2CCC(c3ccccc3)CC2)c2ccccc2c1=O` [Compound 2] gave an IC50 [1] of 10 to 20 µM and an IC50 [2] of 1 to 10 µM.
With `CCn1nc(C(=O)N2CCN(c3ccccc3)CC2)c2ccccc2c1=O` [Compound 3, 2-ethyl-4-(4-phenylpiperazine-1-carbonyl)phthalazin-1-one] the IC50 [1] was 1 to 10 µM and the IC50 [2] was ≤ 1 µM.
For `CC(C)n1nc(C(=O)N2CCN(c3ccccc3)CC2)c2ccccc2c1=O` [Compound 4], the IC50 [1] was > 20 µM and the IC50 [2] was 10 to 20 µM.
`CCCn1nc(C(=O)N2CCN(c3ccccc3)CC2)c2ccccc2c1=O` [Compound 5] was tested, and the IC50 [1] was > 20 µM and the IC50 [2] was 10 to 20 µM.
With `O=C(c1nn(CC(F)(F)F)c(=O)c2ccccc12)N1CCN(c2ccccc2)CC1` [Compound 6] the IC50 [1] was > 20 µM and the IC50 [2] was > 20 µM.
For `O=C(c1nn(CC(F)F)c(=O)c2ccccc12)N1CCN(c2ccccc2)CC1` [Compound 7], the IC50 [1] was > 20 µM and the IC50 [2] was > 20 µM.
In the case of `O=C(c1nn(C2COC2)c(=O)c2ccccc12)N1CCN(c2ccccc2)CC1` [Compound 8], the IC50 [1] is reported as > 20 µM and the IC50 [2] is reported as > 20 µM.
In the case of `O=C(c1nn(C2CC2)c(=O)c2ccccc12)N1CCN(c2ccccc2)CC1` [Compound 9, 2-cyclopropyl-4-(4-phenylpiperazine-1-carbonyl)phthalazin-1-one], the IC50 [1] is reported as 1 to 10 µM and the IC50 [2] is reported as ≤ 1 µM.
In the case of `Cc1ccc(N2CCN(C(=O)c3nn(C)c(=O)c4ccccc34)CC2)cc1` [Compound 10, 2-methyl-4-[4-(p-tolyl)piperazine-1-carbonyl]phthalazin-1-one], the IC50 [1] is reported as > 20 µM and the IC50 [2] is reported as > 20 µM.
In the case of `Cn1ccc(N2CCN(C(=O)c3nn(C)c(=O)c4ccccc34)CC2)n1` [Compound 11], the IC50 [1] is reported as > 20 µM and the IC50 [2] is reported as > 20 µM.
Compound `COc1cc(N2CCN(C(=O)c3nn(C)c(=O)c4ccccc34)CC2)cnn1` [Compound 12] has an IC50 [1] of 10 to 20 µM and an IC50 [2] of 10 to 20 µM.
`COc1cc(F)cnc1N1CCN(C(=O)c2nn(C)c(=O)c3ccccc23)CC1` [Compound 13] gave an IC50 [1] of 10 to 20 µM and an IC50 [2] of 1 to 10 µM.
In the case of `COc1cccnc1N1CCN(C(=O)c2nn(C)c(=O)c3ccccc23)CC1` [Compound 14], the IC50 [1] is reported as 1 to 10 µM and the IC50 [2] is reported as ≤ 1 µM.
`COc1cnccc1N1CCN(C(=O)c2nn(C)c(=O)c3ccccc23)CC1` [Compound 15] was tested, and the IC50 [1] was 1 to 10 µM and the IC50 [2] was ≤ 1 µM.
Work on `COc1nccnc1N1CCN(C(=O)c2nn(C)c(=O)c3ccccc23)CC1` [Compound 16] yielded an IC50 [1] of 10 to 20 µM and an IC50 [2] of 1 to 10 µM.
`Cn1nc(C(=O)N2CCN(c3ncccc3C3CC3)CC2)c2ccccc2c1=O` [Compound 17] was tested, and the IC50 [1] was ≤ 1 µM and the IC50 [2] was ≤ 1 µM.
`Cn1nc(C(=O)N2CCN(c3ccncc3F)CC2)c2ccccc2c1=O` [Compound 18] was tested, and the IC50 [1] was > 20 µM and the IC50 [2] was > 20 µM.
`Cn1nc(C(=O)N2CCN(c3ncc(F)cc3C3CC3)CC2)c2ccccc2c1=O` [Compound 19] was tested, and the IC50 [1] was 1 to 10 µM and the IC50 [2] was ≤ 1 µM.
`COc1ncccc1N1CCN(C(=O)c2nn(C)c(=O)c3ccccc23)CC1` [Compound 20] showed an IC50 [1] of 1 to 10 µM and an IC50 [2] of 1 to 10 µM.
With `Cn1nc(C(=O)N2CCN(c3nccnc3C3CC3)CC2)c2ccccc2c1=O` [Compound 21] the IC50 [1] was > 20 µM and the IC50 [2] was 1 to 10 µM.
For `COc1cncnc1N1CCN(C(=O)c2nn(C)c(=O)c3ccccc23)CC1` [Compound 22], the IC50 [1] was > 20 µM and the IC50 [2] was > 20 µM.
For `COc1ncc(Cl)cc1N1CCN(C(=O)c2nn(C)c(=O)c3ccccc23)CC1` [Compound 23], the IC50 [1] was ≤ 1 µM and the IC50 [2] was ≤ 1 µM.
With `COc1cc(C#N)ncc1N1CCN(C(=O)c2nn(C)c(=O)c3ccccc23)CC1` [Compound 24] the IC50 [1] was > 20 µM and the IC50 [2] was > 20 µM.
`Cc1cccc(N2CCN(C(=O)c3nn(C)c(=O)c4ccccc34)CC2)c1` [Compound 25] was tested, and the IC50 [1] was ≤ 1 µM and the IC50 [2] was ≤ 1 µM.
`Cn1nc(C(=O)N2CCN(c3ccc(C(F)(F)F)cc3)CC2)c2ccccc2c1=O` [Compound 27] was tested, and the IC50 [1] was 1 to 10 µM and the IC50 [2] was 1 to 10 µM.
For `Cn1nc(C(=O)N2CCN(c3ccncc3)CC2)c2ccccc2c1=O` [Compound 28], the IC50 [1] was > 20 µM and the IC50 [2] was > 20 µM.
In the case of `COc1ccc(N2CCN(C(=O)c3nn(C)c(=O)c4ccccc34)CC2)cc1` [Compound 29], the IC50 [1] is reported as > 20 µM and the IC50 [2] is reported as > 20 µM.
`Cn1nc(C(=O)N2CCN(c3ccccc3F)CC2)c2ccccc2c1=O` [Compound 30] showed an IC50 [1] of 1 to 10 µM and an IC50 [2] of 1 to 10 µM.
With `Cn1nc(C(=O)N2CCN(c3ccccn3)CC2)c2ccccc2c1=O` [Compound 31] the IC50 [1] was > 20 µM and the IC50 [2] was > 20 µM.
For `Cn1nc(C(=O)N2CCN(c3cccnc3)CC2)c2ccccc2c1=O` [Compound 32], the IC50 [1] was > 20 µM and the IC50 [2] was > 20 µM.
`Cn1nc(C(=O)N2CCN(c3cccc(F)c3)CC2)c2ccccc2c1=O` [Compound 33] was tested, and the IC50 [1] was ≤ 1 µM and the IC50 [2] was ≤ 1 µM.
`COc1cc(F)cc(N2CCN(C(=O)c3nn(C)c(=O)c4ccccc34)CC2)c1` [Compound 34, 4-(4-(3-fluoro-5-methoxyphenyl)piperazine-1-carbonyl)-2-methylphthalazin-1(2H)-one] was tested, and the IC50 [1] was ≤ 1 µM and the IC50 [2] was ≤ 1 µM.
For `COc1cncc(N2CCN(C(=O)c3nn(C)c(=O)c4ccccc34)CC2)c1` [Compound 35], the IC50 [1] was 1 to 10 µM and the IC50 [2] was 1 to 10 µM.
`COc1cc(N2CCN(C(=O)c3nn(C)c(=O)c4ccccc34)CC2)ccn1` [Compound 36] was tested, and the IC50 [1] was > 20 µM and the IC50 [2] was > 20 µM.
For `COc1ccncc1N1CCN(C(=O)c2nn(C)c(=O)c3ccccc23)CC1` [Compound 37], the IC50 [1] was ≤ 1 µM and the IC50 [2] was ≤ 1 µM.
For `Cn1nc(C(=O)N2CCN(c3cncc(F)c3)CC2)c2ccccc2c1=O` [Compound 38], the IC50 [1] was 10 to 20 µM and the IC50 [2] was 1 to 10 µM.
With `Cn1nc(C(=O)N2CCN(c3cncnc3C3CC3)CC2)c2ccccc2c1=O` [Compound 40] the IC50 [1] was 1 to 10 µM and the IC50 [2] was 1 to 10 µM.
In the case of `Cn1nc(C(=O)N2CCN(c3cccc(C4CC4)c3)CC2)c2ccccc2c1=O` [Compound 41], the IC50 [1] is reported as ≤ 1 µM and the IC50 [2] is reported as ≤ 1 µM.
In the case of `CCOc1ccccc1N1CCN(C(=O)c2nn(C)c(=O)c3ccccc23)CC1` [Compound 42], the IC50 [1] is reported as ≤ 1 µM and the IC50 [2] is reported as ≤ 1 µM.
Work on `Cn1nc(C(=O)N2CCN(c3ccc(F)c(F)c3)CC2)c2ccccc2c1=O` [Compound 43] yielded an IC50 [1] of 1 to 10 µM and an IC50 [2] of 1 to 10 µM.
In the case of `COc1ccc(F)c(N2CCN(C(=O)c3nn(C)c(=O)c4ccccc34)CC2)c1` [Compound 44], the IC50 [1] is reported as ≤ 1 µM and the IC50 [2] is reported as ≤ 1 µM.
`Cn1nc(C(=O)N2CCN(c3cc(F)cc(Cl)c3)CC2)c2ccccc2c1=O` [Compound 45] was tested, and the IC50 [1] was ≤ 1 µM and the IC50 [2] was ≤ 1 µM.
Compound `Cn1nc(C(=O)N2CCN(c3ccc(C#N)cc3)CC2)c2ccccc2c1=O` [Compound 46] has an IC50 [1] of 1 to 10 µM and an IC50 [2] of 1 to 10 µM.
With `Cn1nc(C(=O)N2CCN(c3cccc(Cl)c3)CC2)c2ccccc2c1=O` [Compound 47] the IC50 [1] was ≤ 1 µM and the IC50 [2] was ≤ 1 µM.
With `CCOc1ccc(F)cc1N1CCN(C(=O)c2nn(C)c(=O)c3ccccc23)CC1` [Compound 48] the IC50 [1] was ≤ 1 µM and the IC50 [2] was ≤ 1 µM.
`Cn1nc(C(=O)N2CCN(c3cccc(C#N)c3)CC2)c2ccccc2c1=O` [Compound 49] was tested, and the IC50 [1] was ≤ 1 µM and the IC50 [2] was ≤ 1 µM.
`COc1cccc(N2CCN(C(=O)c3nn(C)c(=O)c4ccccc34)CC2)c1` [Compound 50] was tested, and the IC50 [1] was ≤ 1 µM and the IC50 [2] was ≤ 1 µM.
In the case of `Cn1nc(C(=O)N2CCN(c3ccc4c(c3)OCC4)CC2)c2ccccc2c1=O` [Compound 51], the IC50 [1] is reported as > 20 µM and the IC50 [2] is reported as 10 to 20 µM.
With `Cn1nc(C(=O)N2CCN(c3cccc4c3OCC4)CC2)c2ccccc2c1=O` [Compound 52] the IC50 [1] was ≤ 1 µM and the IC50 [2] was ≤ 1 µM.
`Cc1nc2c(N3CCN(C(=O)c4nn(C)c(=O)c5ccccc45)CC3)cccc2o1` [Compound 53] gave an IC50 [1] of 1 to 10 µM and an IC50 [2] of 1 to 10 µM.
With `Cn1nc(C(=O)N2CCN(c3cc(F)cc(F)c3)CC2)c2ccccc2c1=O` [Compound 54] the IC50 [1] was ≤ 1 µM and the IC50 [2] was ≤ 1 µM.
In the case of `Cc1cc(N2CCN(C(=O)c3nn(C)c(=O)c4ccccc34)CC2)ccc1F` [Compound 55], the IC50 [1] is reported as > 20 µM and the IC50 [2] is reported as 10 to 20 µM.
For `COc1cc(F)c(F)cc1N1CCN(C(=O)c2nn(C)c(=O)c3ccccc23)CC1` [Compound 56], the IC50 [1] was ≤ 1 µM and the IC50 [2] was ≤ 1 µM.
In the case of `COc1cc(Cl)ccc1N1CCN(C(=O)c2nn(C)c(=O)c3ccccc23)CC1` [Compound 57], the IC50 [1] is reported as 1 to 10 µM and the IC50 [2] is reported as ≤ 1 µM.
For `CCOc1cc(F)ccc1N1CCN(C(=O)c2nn(C)c(=O)c3ccccc23)CC1` [Compound 58], the IC50 [1] was 1 to 10 µM and the IC50 [2] was ≤ 1 µM.
`CC(C)Oc1cc(F)ccc1N1CCN(C(=O)c2nn(C)c(=O)c3ccccc23)CC1` [Compound 59] was tested, and the IC50 [1] was 1 to 10 µM and the IC50 [2] was 1 to 10 µM.
For `Cn1nc(C(=O)N2CCN(c3ccc(F)cc3C3CC3)CC2)c2ccccc2c1=O` [Compound 60], the IC50 [1] was ≤ 1 µM and the IC50 [2] was ≤ 1 µM.
In the case of `Cn1nc(C(=O)N2CCN(c3cc(F)cc(C#N)c3)CC2)c2ccccc2c1=O` [Compound 61, 3-fluoro-5-(4-(3-methyl-4-oxo-3,4-dihydrophthalazine-1-carbonyl)piperazin-1-yl)benzonitrile], the IC50 [1] is reported as ≤ 1 µM and the IC50 [2] is reported as ≤ 1 µM.
For `Cn1nc(C(=O)N2CCN(c3cc(C#N)ccc3C3CC3)CC2)c2ccccc2c1=O` [Compound 62], the IC50 [1] was ≤ 1 µM and the IC50 [2] was ≤ 1 µM.
In the case of `Cn1nc(C(=O)N2CCN(c3cncc(C(F)F)c3)CC2)c2ccccc2c1=O` [Compound 63], the IC50 [1] is reported as > 20 µM and the IC50 [2] is reported as > 20 µM.
`Cc1cc(C)nc(N2CCN(C(=O)c3nn(C)c(=O)c4ccccc34)CC2)n1` [Compound 64] was tested, and the IC50 [1] was > 20 µM and the IC50 [2] was 1 to 10 µM.
`COCc1ccnc(N2CCN(C(=O)c3nn(C)c(=O)c4ccccc34)CC2)n1` [Compound 65] was tested, and the IC50 [1] was > 20 µM and the IC50 [2] was > 20 µM.
In the case of `CCc1ccncc1N1CCN(C(=O)c2nn(C)c(=O)c3ccccc23)CC1` [Compound 66], the IC50 [1] is reported as 1 to 10 µM and the IC50 [2] is reported as ≤ 1 µM.
